Source: the supplement of paper PMC10627819

What was measured:
Assay in all cases: fitness (endpoint OD595 vs no drug) (fraction); higher = more growth
S. aureus DSM 20231 = test system: S. aureus DSM 20231
How it was run: (§1)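 Fitness is computed from the optical density at which cultures reach stationary phase, divided by the robust mean of no-drug control wells. Any value above 1 is set to 1. Cultures started at OD595 0.01 in 384-well plates with TSB, LB Lennox or CY at 37 °C, and OD595 was read every 30 min for 14 h against a first-reading background.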

S. aureus Newman = test system: S. aureus Newman
How it was run: as §1

S. pneumoniae D39V = test system: S. pneumoniae D39V
How it was run: as §1

B. subtilis 168 = test system: B. subtilis 168
How it was run: as §1
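Also: OD595 on entry to stationary phase over no-drug wells; at most 1.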

CO/N=C(\C(=O)N[C@@H]1C(=O)N2C(C(=O)O)=C(COC(C)=O)CS[C@H]12)c1csc(N)n1 [Cefotaxime] + CO/N=C(\C(=O)N[C@@H]1C(=O)N2C(C(=O)[O-])=C(C[N+]3(C)CCCC3)CS[C@H]12)c1csc(N)n1 [Cefepime]
Details	fitness
S. aureus DSM 20231, first compound 0.039 µg/mL, partner 0.125 µg/mL	0.782
S. aureus DSM 20231, first compound 0.039 µg/mL, partner 0.25 µg/mL	0.847
S. aureus DSM 20231, first compound 0.039 µg/mL, partner 0.5 µg/mL	0.824
S. aureus DSM 20231, first compound 0.078 µg/mL, partner 0.125 µg/mL	0.754
S. aureus DSM 20231, first compound 0.078 µg/mL, partner 0.25 µg/mL	0.8
S. aureus DSM 20231, first compound 0.078 µg/mL, partner 0.5 µg/mL	0.772
S. aureus DSM 20231, first compound 0.156 µg/mL, partner 0.125 µg/mL	0.686
S. aureus DSM 20231, first compound 0.156 µg/mL, partner 0.25 µg/mL	0.73
S. aureus DSM 20231, first compound 0.156 µg/mL, partner 0.5 µg/mL	0.753
S. aureus DSM 20231, first compound 0.312 µg/mL, partner 0.125 µg/mL	0.664
S. aureus DSM 20231, first compound 0.312 µg/mL, partner 0.25 µg/mL	0.661
S. aureus DSM 20231, first compound 0.312 µg/mL, partner 0.5 µg/mL	0.71
S. aureus Newman, first compound 0.078 µg/mL, partner 0.125 µg/mL	0.75
S. aureus Newman, first compound 0.078 µg/mL, partner 0.25 µg/mL	0.695
S. aureus Newman, first compound 0.078 µg/mL, partner 0.5 µg/mL	0.696
S. aureus Newman, first compound 0.156 µg/mL, partner 0.125 µg/mL	0.618
S. aureus Newman, first compound 0.156 µg/mL, partner 0.25 µg/mL	0.577
S. aureus Newman, first compound 0.156 µg/mL, partner 0.5 µg/mL	0.519
S. aureus Newman, first compound 0.312 µg/mL, partner 0.125 µg/mL	0.469
S. aureus Newman, first compound 0.312 µg/mL, partner 0.25 µg/mL	0.415
S. aureus Newman, first compound 0.312 µg/mL, partner 0.5 µg/mL	0.36
S. aureus Newman, first compound 0.625 µg/mL, partner 0.125 µg/mL	0.206
S. aureus Newman, first compound 0.625 µg/mL, partner 0.25 µg/mL	0.178
S. aureus Newman, first compound 0.625 µg/mL, partner 0.5 µg/mL	0.0892
S. aureus Newman, first compound 1.25 µg/mL, partner 0.125 µg/mL	0.125
S. aureus Newman, first compound 1.25 µg/mL, partner 0.25 µg/mL	0.0934
S. aureus Newman, first compound 1.25 µg/mL, partner 0.5 µg/mL	0.049
S. aureus Newman, first compound 2.5 µg/mL, partner 0.125 µg/mL	0.0454
S. aureus Newman, first compound 2.5 µg/mL, partner 0.25 µg/mL	0.0501
S. aureus Newman, first compound 2.5 µg/mL, partner 0.5 µg/mL	0.0407
S. pneumoniae D39V, first compound 0.0018 µg/mL, partner 0.007 µg/mL	≥ 1
S. pneumoniae D39V, first compound 0.0018 µg/mL, partner 0.0078 µg/mL	≥ 1
S. pneumoniae D39V, first compound 0.0018 µg/mL, partner 0.014 µg/mL	≥ 1
S. pneumoniae D39V, first compound 0.0018 µg/mL, partner 0.0155 µg/mL	≥ 1
S. pneumoniae D39V, first compound 0.0018 µg/mL, partner 0.028 µg/mL	0.93
S. pneumoniae D39V, first compound 0.0018 µg/mL, partner 0.031 µg/mL	0.926
S. pneumoniae D39V, first compound 0.0035 µg/mL, partner 0.007 µg/mL	0.983
S. pneumoniae D39V, first compound 0.0035 µg/mL, partner 0.0078 µg/mL	0.998
S. pneumoniae D39V, first compound 0.0035 µg/mL, partner 0.014 µg/mL	0.994
S. pneumoniae D39V, first compound 0.0035 µg/mL, partner 0.0155 µg/mL	0.996
S. pneumoniae D39V, first compound 0.0035 µg/mL, partner 0.028 µg/mL	0.8
S. pneumoniae D39V, first compound 0.0035 µg/mL, partner 0.031 µg/mL	0.89
S. pneumoniae D39V, first compound 0.007 µg/mL, partner 0.007 µg/mL	0.94
S. pneumoniae D39V, first compound 0.007 µg/mL, partner 0.0078 µg/mL	0.921
S. pneumoniae D39V, first compound 0.007 µg/mL, partner 0.014 µg/mL	0.96
S. pneumoniae D39V, first compound 0.007 µg/mL, partner 0.0155 µg/mL	0.891
S. pneumoniae D39V, first compound 0.007 µg/mL, partner 0.028 µg/mL	0.629
S. pneumoniae D39V, first compound 0.007 µg/mL, partner 0.031 µg/mL	0.553

COc1cccc2c1C(=O)c1c(O)c3c(c(O)c1C2=O)C[C@@](O)(C(=O)CO)C[C@@H]3O[C@H]1C[C@H](N)[C@H](O)[C@H](C)O1 [Doxorubicin] + CO/N=C(\C(=O)N[C@@H]1C(=O)N2C(C(=O)[O-])=C(C[N+]3(C)CCCC3)CS[C@H]12)c1csc(N)n1 [Cefepime]
fitness
Details	first compound 0.25 µg/mL	first compound 0.5 µg/mL	first compound 0.625 µg/mL	first compound 1 µg/mL	first compound 1.25 µg/mL	first compound 2.5 µg/mL
S. aureus DSM 20231, partner 0.125 µg/mL	–	–	0.861	–	0.828	0.721
S. aureus DSM 20231, partner 0.25 µg/mL	–	–	0.826	–	0.814	0.656
S. aureus DSM 20231, partner 0.5 µg/mL	–	–	0.741	–	0.71	0.62
S. aureus Newman, partner 0.125 µg/mL	–	–	0.783	–	0.773	0.716
S. aureus Newman, partner 0.25 µg/mL	–	–	0.762	–	0.744	0.696
S. aureus Newman, partner 0.5 µg/mL	–	–	0.659	–	0.732	0.683
S. pneumoniae D39V, partner 0.007 µg/mL	0.937	0.949	–	0.957	–	–
S. pneumoniae D39V, partner 0.0078 µg/mL	≥ 1	≥ 1	–	0.938	–	–
S. pneumoniae D39V, partner 0.014 µg/mL	0.912	0.935	–	0.942	–	–
S. pneumoniae D39V, partner 0.0155 µg/mL	0.974	0.994	–	0.917	–	–
S. pneumoniae D39V, partner 0.028 µg/mL	0.783	0.846	–	0.825	–	–

CO/N=C(\C(=O)N[C@@H]1C(=O)N2C(C(=O)O)=C(COC(C)=O)CS[C@H]12)c1csc(N)n1 [Cefotaxime] + CO[C@@]12[C@H](COC(N)=O)C3=C(C(=O)C(C)=C(N)C3=O)N1C[C@@H]1N[C@@H]12 [Mitomycin C]
Details	fitness
S. aureus DSM 20231, first compound 0.039 µg/mL, partner 0.0156 µg/mL	0.581
S. aureus DSM 20231, first compound 0.039 µg/mL, partner 0.0312 µg/mL	0.532
S. aureus DSM 20231, first compound 0.039 µg/mL, partner 0.0625 µg/mL	0.607
S. aureus DSM 20231, first compound 0.078 µg/mL, partner 0.0156 µg/mL	0.581
S. aureus DSM 20231, first compound 0.078 µg/mL, partner 0.0312 µg/mL	0.577
S. aureus DSM 20231, first compound 0.078 µg/mL, partner 0.0625 µg/mL	0.537
S. aureus DSM 20231, first compound 0.156 µg/mL, partner 0.0156 µg/mL	0.538
S. aureus DSM 20231, first compound 0.156 µg/mL, partner 0.0312 µg/mL	0.562
S. aureus DSM 20231, first compound 0.156 µg/mL, partner 0.0625 µg/mL	0.54
S. aureus DSM 20231, first compound 0.312 µg/mL, partner 0.0156 µg/mL	0.483
S. aureus DSM 20231, first compound 0.312 µg/mL, partner 0.0312 µg/mL	0.495
S. aureus DSM 20231, first compound 0.312 µg/mL, partner 0.0625 µg/mL	0.457
S. aureus Newman, first compound 0.078 µg/mL, partner 0.0156 µg/mL	0.577
S. aureus Newman, first compound 0.078 µg/mL, partner 0.0312 µg/mL	0.574
S. aureus Newman, first compound 0.078 µg/mL, partner 0.0625 µg/mL	0.422
S. aureus Newman, first compound 0.156 µg/mL, partner 0.0156 µg/mL	0.48
S. aureus Newman, first compound 0.156 µg/mL, partner 0.0312 µg/mL	0.414
S. aureus Newman, first compound 0.156 µg/mL, partner 0.0625 µg/mL	0.234
S. aureus Newman, first compound 0.312 µg/mL, partner 0.0156 µg/mL	0.313
S. aureus Newman, first compound 0.312 µg/mL, partner 0.0312 µg/mL	0.22
S. aureus Newman, first compound 0.312 µg/mL, partner 0.0625 µg/mL	0.138
S. pneumoniae D39V, first compound 0.0018 µg/mL, partner 0.001075 µg/mL	0.978
S. pneumoniae D39V, first compound 0.0018 µg/mL, partner 0.002 µg/mL	0.789
S. pneumoniae D39V, first compound 0.0018 µg/mL, partner 0.00215 µg/mL	0.949
S. pneumoniae D39V, first compound 0.0018 µg/mL, partner 0.004 µg/mL	0.81
S. pneumoniae D39V, first compound 0.0018 µg/mL, partner 0.0043 µg/mL	0.863
S. pneumoniae D39V, first compound 0.0018 µg/mL, partner 0.008 µg/mL	0.702
S. pneumoniae D39V, first compound 0.0035 µg/mL, partner 0.001075 µg/mL	0.976
S. pneumoniae D39V, first compound 0.0035 µg/mL, partner 0.002 µg/mL	0.781
S. pneumoniae D39V, first compound 0.0035 µg/mL, partner 0.00215 µg/mL	0.922
S. pneumoniae D39V, first compound 0.0035 µg/mL, partner 0.004 µg/mL	0.767
S. pneumoniae D39V, first compound 0.0035 µg/mL, partner 0.0043 µg/mL	0.838
S. pneumoniae D39V, first compound 0.0035 µg/mL, partner 0.008 µg/mL	0.647
S. pneumoniae D39V, first compound 0.007 µg/mL, partner 0.001075 µg/mL	0.895
S. pneumoniae D39V, first compound 0.007 µg/mL, partner 0.002 µg/mL	0.694
S. pneumoniae D39V, first compound 0.007 µg/mL, partner 0.00215 µg/mL	0.834
S. pneumoniae D39V, first compound 0.007 µg/mL, partner 0.004 µg/mL	0.679
S. pneumoniae D39V, first compound 0.007 µg/mL, partner 0.0043 µg/mL	0.802
S. pneumoniae D39V, first compound 0.007 µg/mL, partner 0.008 µg/mL	0.637

fitness, S. aureus Newman, one replicate
Details	first compound 0.625 µg/mL	first compound 1.25 µg/mL	first compound 2.5 µg/mL
partner 0.0156 µg/mL	0.0313	0.0209	0.0581
partner 0.0312 µg/mL	0.025	0.0017	0.0229
partner 0.0625 µg/mL	0.0258	0	0.0272

CN(C)[C@@H]1C(O)=C(C(N)=O)C(=O)[C@@]2(O)C(O)=C3C(=O)c4c(O)ccc(Cl)c4[C@@](C)(O)[C@H]3C[C@@H]12 [Chlortetracycline] + CN(N=O)C(=O)N[C@@H](C=O)[C@@H](O)[C@H](O)[C@H](O)CO [Streptozotocin]
fitness, one replicate
Details	partner 0.15 µg/mL	partner 0.3 µg/mL	partner 0.6 µg/mL	partner 1.2 µg/mL	partner 2.4 µg/mL	partner 4.8 µg/mL
S. aureus DSM 20231, first compound 0.006 µg/mL	0.699	0.621	0.622	–	–	–
S. pneumoniae D39V, first compound 0.012 µg/mL	–	–	–	0.889	0.893	0.796
S. pneumoniae D39V, first compound 0.024 µg/mL	–	–	–	0.858	0.798	0.659
S. pneumoniae D39V, first compound 0.048 µg/mL	–	–	–	0.737	0.8	0.577

fitness
Details	partner 0.15 µg/mL	partner 0.3 µg/mL	partner 0.6 µg/mL	partner 1.2 µg/mL	partner 2.4 µg/mL	partner 4.8 µg/mL
B. subtilis 168, first compound 0.0475 µg/mL	0.901	0.934	0.956	–	–	–
B. subtilis 168, first compound 0.095 µg/mL	0.786	0.762	0.784	–	–	–
B. subtilis 168, first compound 0.19 µg/mL	0.533	0.547	0.556	–	–	–
S. aureus DSM 20231, first compound 0.012 µg/mL	0.503	0.532	0.507	–	–	–
S. aureus DSM 20231, first compound 0.024 µg/mL	0.227	0.232	0.189	–	–	–
S. aureus DSM 20231, first compound 0.048 µg/mL	0.0717	0.13	0.059	–	–	–
S. pneumoniae D39V, first compound 0.375 µg/mL	–	–	–	0.0355	0.0337	0.0486
S. pneumoniae D39V, first compound 0.75 µg/mL	–	–	–	0.0646	0.0497	0.0485
S. pneumoniae D39V, first compound 1.5 µg/mL	–	–	–	0.0765	0.0322	0.0617
